Legend:
[1] = tested on: SK-BR-3 cancer cells; experiment: Inhibitory activity against proliferation of SK-BR-3 cancer cells (CellTiter-Glo); type: cell-based; details: Homo sapiens, SK-BR-3, 120 h, ErbB2-overexpressing SK-BR-3 cells, 120 hours after treatment
Outline: (§1)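 Cells seeded 48 h before dosing (SK-BR-3 in McCOY'S 5A + 10% FBS; BT-474 in RPMI-1640 + 20% FBS), then exposed 120 h to 12 concentrations, 0.2 nM-5 μM final. Viability by CellTiter-Glo luminescence; GI50 from growth rate vs control, triplicate runs.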

[2] = tested on: BT-474 cancer cells; experiment: Inhibitory activity against proliferation of BT-474 cancer cells (CellTiter-Glo); type: cell-based; details: Homo sapiens, BT-474 ErbB2-overexpressing cancer cells, 120 hours after treatment
Outline: as §1

GI50 [1] [nM] | GI50 [2] [nM] | SMILES
< 50 | < 50 | C=CC(=O)Nc1cc(Nc2cc(N3OCCC3c3cccc(OCc4ccccn4)c3)ncn2)c(OC)cc1N1CCN(C)CC1 (stereo not drawn) [Example compound 96, N-(4-methoxy-2-(4-methylpiperazin-1-yl)-5-((6-(3-(3-(pyridin-2-ylmethoxy)phenyl)isoxazolidin-2-yl)pyrimidin-4-yl)amino)phenyl)acrylamide]
< 50 | < 50 | C=CC(=O)Nc1cc(Nc2cc(N3OCCC3c3cccc(OCc4ccccn4)c3)ncn2)c(OC)cc1N1CCC(N2CCN(C3CC3)CC2)CC1 (stereo not drawn) [Example compound 98, N-(2-(4-(4-cyclopropylpiperazin-1-yl)piperidin-1-yl)-4-methoxy-5-((6-(3-(3-(pyridin-2-ylmethoxy)phenyl)isoxazolidin-2-yl)pyrimidin-4-yl)amino)phenyl)acrylamide]
< 50 | 50 to 500 | C=CC(=O)Nc1cc(Nc2cc(N3OCCC3c3ccc(Cl)c(OCc4cccc(F)c4)c3)ncn2)c(OC)cc1N1CCC(N2CCN(C3CC3)CC2)CC1 (stereo not drawn) [Example compound 116, N-(5-((6-(3-(4-chloro-3-((3-fluorobenzyl)oxy)phenyl)isoxazolidin-2-yl)pyrimidin-4-yl)amino)-2-(4-(4-cyclopropylpiperazin-1-yl)piperidin-1-yl)-4-methoxyphenyl)acrylamide]
< 50 | < 50 | C=CC(=O)Nc1cc(Nc2cc(N3OCC[C@@H]3c3cccc(-c4cccs4)c3)ncn2)c(OC)cc1N1CCC(N2CCN(C3CC3)CC2)CC1 [Example compound 135, (R)-N-(2-(4-(4-cyclopropylpiperazin-1-yl)piperidin-1-yl)-4-methoxy-5-((6-(3-(3-(thiophen-2-yl)phenyl)isoxazolidin-2-yl)pyrimidin-4-yl)amino)phenyl)acrylamide]
< 50 | < 50 | C=CC(=O)Nc1cc(Nc2cc(N3OCCC3c3ccc(F)c(OCc4cccc(F)c4)c3)ncn2)c(OC)cc1N1CCC(N2CCN(C3CC3)CC2)CC1 (stereo not drawn) [Example compound 150, N-(2-(4-(4-cyclopropylpiperazin-1-yl)piperidin-1-yl)-5-((6-(3-(4-fluoro-3-((3-fluorobenzyl)oxy)phenyl)isoxazolidin-2-yl)pyrimidin-4-yl)amino)-4-methoxyphenyl)acrylamide]
< 50 | < 50 | C=CC(=O)Nc1cc(Nc2cc(N3OCCC3c3ccc(F)c(OCc4cccc(F)c4)c3)ncn2)c(OC)cc1N1CCN(C)CC1 (stereo not drawn) [Example compound 151, N-(5-((6-(3-(4-fluoro-3-((3-fluorobenzyl)oxy)phenyl)isoxazolidin-2-yl)pyrimidin-4-yl)amino)-4-methoxy-2-(4-methylpiperazin-1-yl)phenyl)acrylamide]

Source: patent US20240262815A1, “HETEROARYL DERIVATIVE, METHOD FOR PREPARING SAME, AND PHARMACEUTICAL COMPOSITION COMPRISING SAME AS ACTIVE INGREDIENT” (VORONOI INC., priority 2021, published 2024)
